Source: US8557831B2, “Compositions and methods for treatment and prevention of insulin resistance” (University of Florida Research Foundation, Inc., priority 2004, dated 2013)

How the values were obtained:
Male Sprague-Dawley rats [1] = test: Serum nitrites/nitrates (NOx) by chemiluminescence method in hyperuricemic rats; assay type: in vivo, rat
Experimental: (§1) Male Sprague-Dawley rats were housed in standard conditions and fed normal diets. Hyperuricemia was induced with an uricase inhibitor, oxonic acid (OA; 750 mg/kg/day), by gavage, with control rats receiving vehicle. Allopurinol (AP) was used to block hyperuricemia by placing AP in the drinking water (150 mg/L). Rats were divided into four groups: (1) Control, (2) AP only, (3) OA only, and (4) OA+AP. Systolic blood pressure was measured using a tail-cuff sphygmomanometer. The amount of drinking water consumed and changes in body weight were noted. Rats were sacrificed at one and seven days. Serum was analyzed for uric acid concentration and nitrites/nitrates (NOx) by chemiluminescence method. (Prabhakar S S: Inhibition of mesangial iNOS by reduced extracellular pH is associated with uncoupling of NADPH oxidation. Kidney Int 61:2015-2024, 2002). Statistical analysis between subgroups was performed using ANOVA.

Male Sprague-Dawley rats [2] = test: Systolic blood pressure by tail-cuff sphygmomanometer in hyperuricemic rats; assay type: in vivo, rat; conditions: 7 days, p=NS
Male Sprague-Dawley rats [3] = test: Serum uric acid concentration in oxonic acid-induced hyperuricemia rat model; assay type: in vivo
Experimental: as §1

SMILES	serum nitrites and nitrates (NOx) (Male Sprague-Dawley rats [1]; OA only group, 1 day)	serum nitrites and nitrates (NOx) (Male Sprague-Dawley rats [1]; OA only group, 7 days)	reduction of serum nitrites and nitrates (NOx) vs. Control (Male Sprague-Dawley rats [1]; hyperuricemic (OA) rats, at both 1 day and 7 days)	systolic blood pressure (Male Sprague-Dawley rats [2])	serum uric acid (Male Sprague-Dawley rats [3]; OA only group, 750 mg/kg/day by gavage, 1 day)	serum uric acid (Male Sprague-Dawley rats [3]; OA only group, 750 mg/kg/day by gavage, 7 days)	serum nitrites and nitrates (NOx) (Male Sprague-Dawley rats [1]; OA+AP group, 1 day)	serum nitrites and nitrates (NOx) (Male Sprague-Dawley rats [1]; OA+AP group, 7 days)	change in serum NOx concentration (Male Sprague-Dawley rats [1]; rats treated with AP alone)	serum uric acid (Male Sprague-Dawley rats [3]; OA+AP group (AP 150 mg/L in drinking water), 7 days)	serum uric acid (Male Sprague-Dawley rats [3]; OA+AP group (AP 150 mg/L in drinking water), day 1)	change in serum UA concentration (Male Sprague-Dawley rats [3]; rats treated with AP alone)
O=C(O)c1nc(=O)[nH]c(=O)[nH]1 [OA, oxonic acid]	15.6 ± 0.4 µmol/L	14.6 ± 1.1 µmol/L	40-50%	178±18 mm Hg	1.7 ± 0.7 mg/dL	1.8 ± 0.4 mg/dL						
Oc1ncnc2[nH]ncc12 [AP, Allopurinol]							17.4 ± 0.8 µmol/L	25.0 ± 0.8 µmol/L	did not show a significant change	0.3 ± 0.2 mg/dL	1.52 ± 0.3 mg/dL	did not show a significant change
